Values of other authors, collected in patent publication US20150265683A1, “Stable aqueous composition comprising human insulin or an analogue or derivative thereof” (WOCKHARDT LIMITED, priority 2012, published 2015).

Settings: for duration of action: after administration

Substance | onset of action (starts working) after administration [h] | onset of action (begins to work) after administration [min] | duration of action [h]
Insulin detemir | 1 to 2 |  | 
Asp^B28 human insulin [insulin aspart] |  | 5 to 15 | 3 to 4
Gly(A21)-Arg(B31)-Arg(B32)-human insulin [Insulin glargine] | 1 to 2 |  | 
Lys^B28 Pro^B29 human insulin [insulin lispro] |  | 5 to 15 | 3 to 4
Regular insulin: Short-acting insulin |  | ≤ 30 | 5 to 8
Isophane Insulin: Intermediate-acting insulin | 1 to 3 |  | 16 to 24
